Experimental data published in patent publication US20190112598A1, “Methods and Systems of Cell-Free Enzyme Discovery and Optimization” (President and Fellows of Harvard College, priority 2016, published 2019).

Molecular target: T1, AcuR (Cereibacter sphaeroides, UniProt Q3J6K8)
T1 construct: made in house; host or cells: cell-free expression reaction (NEB P/N E6800 components A and B) from T7-promoter linear dsDNA, made in the assay well itself
T1 sequence (Q3J6K8 1-219): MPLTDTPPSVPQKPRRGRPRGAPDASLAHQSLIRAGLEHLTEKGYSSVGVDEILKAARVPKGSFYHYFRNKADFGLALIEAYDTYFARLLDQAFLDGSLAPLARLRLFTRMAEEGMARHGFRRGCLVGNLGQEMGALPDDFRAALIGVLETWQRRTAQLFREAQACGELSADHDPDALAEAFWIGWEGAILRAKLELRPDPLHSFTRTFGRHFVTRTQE
Experiment: Cell-free observation of acrylate: AcuR sensor with GFP reporter in a cell-free expression reaction
Type: biochemical
Conditions: 0.1 mM sodium acrylate; 37° C.; 395 nm excitation; measured every two minutes for 4 hours; sample without acrylate rose to 260; FIG. 1
Excerpt: DNA encoded biological acrylate sensor was used to detect acrylate. AcuR is a transcription factor whose activity is dependent on the concentration of acrylate. A linear dsDNA encoding the acrylate sensor AcuR is combined with a reporter circular plasmid which contained a GFP protein controlled by a promoter regulated by AcuR. Thus, GFP fluorescence is related to the amount of acrylate in the sample.
In order to obtain an adequate signal-to-noise ratio (SNR), a T7 promoter was used to drive the expression of the sensor to achieve high expression of the sensor protein and ensure outnumbering of the number of reporter promoters, and well controlled expression. Additionally, an E. coli RNAP promoter was used to drive expression on the reporter, as it reduces the level of background signal, and provides with a more accurate control by AcuR.
Linear DNA amplification: Linear dsDNA containing AcuR was prepared by PCR amplification using primers which contain a T7 promoter, and ribosome binding site (RBS). […]
The samples were incubated at 37° C., and the fluorescence signal (395 nm excitation, 470 nm […]) of the sample was measured every two minutes for 4 hours.

With `C=CC(=O)O` [acrylate] the “increase of fluorescence (GFP reporter signal)” value was 750 arbitrary units.
